Assays:
[1] = molecular target: Alpha (DGK alpha; only in reference sheet cells) (Rattus norvegicus, UniProt P51556); assay: DGK isoform % Activity screen; assay type: biochemical; details: for activity at 100 µM: read-out: 100 uM % Activity (section without isoform head; Alpha)
[2] = molecular target: T1, DGKZ (Diacylglycerol kinase zeta) (Homo sapiens, UniProt Q13574); assay: SILAC LC-MS ATP acyl phosphate probe competition, recombinant DGK-HEK293T lysates; assay type: binding; details: ATP 1 mM, Ketanserin, Ritanserin 100 μM, RF001 1 mM; for SILAC ratio, DGKZ C1 probe-modified peptide: site C1 (K323); for SILAC ratio, DGKZ DAGKa probe-modified peptide: site DAGKa (K662); for SILAC ratio, DGKZ DAGKc probe-modified peptide: site DAGKc (K500)
T1 construct: expressed in transfected cells; host or cells: SILAC HEK293T
T1 sequence (Q13574 whole entry): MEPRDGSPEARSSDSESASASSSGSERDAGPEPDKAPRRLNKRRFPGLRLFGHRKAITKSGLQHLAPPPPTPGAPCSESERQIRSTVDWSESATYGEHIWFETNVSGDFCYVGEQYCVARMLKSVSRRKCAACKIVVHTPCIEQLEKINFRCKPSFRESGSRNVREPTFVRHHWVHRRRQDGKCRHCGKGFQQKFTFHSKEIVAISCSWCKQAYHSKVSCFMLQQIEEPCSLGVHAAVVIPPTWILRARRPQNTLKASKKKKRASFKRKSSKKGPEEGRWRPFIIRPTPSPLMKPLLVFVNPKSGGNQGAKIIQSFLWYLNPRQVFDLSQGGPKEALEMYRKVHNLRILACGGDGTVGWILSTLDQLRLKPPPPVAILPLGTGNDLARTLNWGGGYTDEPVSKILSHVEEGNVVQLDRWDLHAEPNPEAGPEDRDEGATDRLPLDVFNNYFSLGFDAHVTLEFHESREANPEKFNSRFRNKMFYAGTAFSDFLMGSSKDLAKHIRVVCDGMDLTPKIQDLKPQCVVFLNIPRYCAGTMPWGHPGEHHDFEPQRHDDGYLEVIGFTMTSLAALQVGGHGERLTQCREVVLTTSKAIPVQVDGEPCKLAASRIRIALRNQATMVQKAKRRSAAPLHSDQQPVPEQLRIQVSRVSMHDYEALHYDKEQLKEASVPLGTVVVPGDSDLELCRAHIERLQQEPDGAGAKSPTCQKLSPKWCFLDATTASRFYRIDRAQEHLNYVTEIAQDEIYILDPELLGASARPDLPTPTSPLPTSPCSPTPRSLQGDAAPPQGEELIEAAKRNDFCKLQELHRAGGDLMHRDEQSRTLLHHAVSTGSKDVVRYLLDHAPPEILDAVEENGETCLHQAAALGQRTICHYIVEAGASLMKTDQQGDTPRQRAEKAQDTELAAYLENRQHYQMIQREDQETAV
Excerpt: Recombinant DGK proteins were produced by transient transfection of HEK293T cells with recombinant DNA. pDONR223-DGKK was a gift from William Hahn & David Root (Addgene plasmid #23487). pCSF107mT-GATEWAY-3′-FLAG was a gift from Todd Stukenberg (Addgene plasmid #67619). pCSF107mT-DGKK-FLAG construct was generated by recombination of the Addgene plasmids using the Gateway cloning system (Invitrogen). All other vectors were gifted to Dr. Kevin Lynch (University of Virginia, School of Medicine) by Dr. Kaoru Goto (Yamagata University, School of Medicine) and Dr. Fumio Sakane (Chiba University) and were kindly shared with us: pcDNA3-FLAG-DGKA (rat), pCMV-Tag2B-FLAG-DGKQ (human), pcDNA3-DGKE-3×Flag (human), and pCMV-SPORT6-HA-DGKZ (human). HEK293T cells were plated at a concentration of 400,000 cells in complete DMEM and grown to 50-60% confluency. A polyethyleneimine (PEI) stock solution was prepared (1 mg/mL, pH 7.4) and filter sterilized. Serum-free DMEM (600 μL) was mixed gently with 2.6 μg DNA and 20 μL of sterile PEI (1 mg/mL, pH 7.4) in a sterile microfuge tube. Mixtures were incubated for 30 min at 25° C. The mixture was then added drop-wise to each 10 cm^2 plate, rocked back and forth to mix, and placed back in the incubator. Cell pellets were harvested after two full days of growth, snap-frozen in liquid N2, and stored at −80° C. until use. Recombinant proteins were produced by transient transfection in SILAC HEK293T cells using the procedure described above, except that cells were plated at a concentration of 1×10^6 cells per 10 cm^2 plate and grown to ˜70% confluency prior to introducing transfection mixture.
Proteomes were diluted to 2 mg/ml in kinase buffer. The light and heavy proteomes (0.5 mg, 250 μL total reaction volume) were pre-treated with vehicle or compound, respectively (5 μL, DMSO (light) or 50× stock in DMSO (heavy)), mixed gently, and incubated at 25° C. for 30 min. […] After incubation, matched light and heavy proteomes were transferred and mixed in a 1:1 ratio in a two-dram vial containing 4:1:3 MeOH/CHCl3/H2O (2 mL MeOH, 500 AL CHCl3, 1.5 mL H2O) for extraction of proteins to remove excess probe, quickly vortexed, and centrifuged at 1,400×g for 3 min to pellet protein. Organic and aqueous layers were removed using a Pasteur pipette, and the protein pellet was transferred to a screw-top tube in 600 μL MeOH. A second extraction was performed by adding CHCl3 (150 μL) and H2O (600 μL) to each sample, vortexed, and centrifuged at 1,400×g for 3 min to pellet protein. Organic and aqueous layers were removed by pipetting. MeOH added to pellet (600 μL) and pellets were re-suspended by sonication (3×1 sec pulse, 20% amplitude) for a final extraction. Samples were then centrifuged at 17,000×g for 5 min to pellet protein and MeOH was removed by pipetting. The pellets were re-suspended in 10 M urea/25 mM ammonium bicarbonate ([…]), brought to a final volume of 1 mL with 25 mM ammonium bicarbonate, reduced with 10 mM DTT for 15 min at 65° C. allowed to cool, and then alkylated with 40 mM iodoacetamide for 30 min at 25° C. in the dark. To desalt the samples, each was transferred to a two-dram glass vial, and to the vial 4:1:2 MeOH/CHCl3/H2O (2 mL MeOH, 500 AL CHCl3, 1 mL H2O) was added. The vials were vortexed quickly, spun at 1.400×g for 3 min to pellet protein, and aqueous and organic layers were removed using a Pasteur pipette. The resulting protein pellet was transferred to a screw-top tube in 600 μL MeOH, and then CHCl3 (150 μL) and HO (600 μL) were added to extract protein a second time. The samples were vortexed quickly, centrifuged at 1,400×g to pellet protein, and the aqueous and organic layers were removed by pipetting. Resulting protein pellet was suspended in MeOH (600 μL) via sonication (3×1 sec pulse, 20% amplitude), centrifuged at 17,000×g for 5 min to pellet protein, and MeOH removed by pipetting. […]

Alpha (DGK alpha; only in reference sheet cells), sequence (P51556 whole entry, canonical isoform): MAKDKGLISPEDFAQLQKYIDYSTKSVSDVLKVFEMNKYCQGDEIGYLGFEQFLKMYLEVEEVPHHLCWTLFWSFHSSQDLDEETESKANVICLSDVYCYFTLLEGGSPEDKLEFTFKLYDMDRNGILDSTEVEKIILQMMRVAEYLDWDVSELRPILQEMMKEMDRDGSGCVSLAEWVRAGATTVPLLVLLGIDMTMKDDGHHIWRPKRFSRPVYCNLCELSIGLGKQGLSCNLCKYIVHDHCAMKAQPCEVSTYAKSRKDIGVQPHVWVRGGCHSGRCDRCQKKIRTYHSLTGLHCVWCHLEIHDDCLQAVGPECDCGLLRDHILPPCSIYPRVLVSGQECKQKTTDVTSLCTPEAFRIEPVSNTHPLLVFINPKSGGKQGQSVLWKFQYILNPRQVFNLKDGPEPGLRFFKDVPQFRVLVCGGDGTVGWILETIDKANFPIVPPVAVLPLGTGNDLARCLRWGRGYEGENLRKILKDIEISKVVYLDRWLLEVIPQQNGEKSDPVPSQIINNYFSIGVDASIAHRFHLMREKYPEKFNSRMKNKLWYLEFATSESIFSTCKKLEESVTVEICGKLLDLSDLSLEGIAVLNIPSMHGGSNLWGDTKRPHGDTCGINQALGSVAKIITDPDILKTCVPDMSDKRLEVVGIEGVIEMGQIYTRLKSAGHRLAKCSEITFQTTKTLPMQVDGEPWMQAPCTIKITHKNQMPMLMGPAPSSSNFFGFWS

SMILES | activity at 100 µM [1] [%] | SILAC ratio, DGKZ C1 probe-modified peptide [2] | SILAC ratio, DGKZ DAGKa probe-modified peptide [2] | SILAC ratio, DGKZ DAGKc probe-modified peptide [2] | activity at 1000 µM ([1]; read-out: 1 mM % Activity (section without isoform head; Alpha)) [%]
O=C(c1ccc(F)cc1)C1CCN(CCn2c(=O)[nH]c3ccccc3c2=O)CC1 [Ketanserin] | 99 | 1.3 | 1.4 | 1.5 | 
Cc1nc2sccn2c(=O)c1CCN1CCC(=C(c2ccc(F)cc2)c2ccc(F)cc2)CC1 [Ritanserin] | 52 | 1.4 | 1.8 | 1.2 | 
Fc1ccc(C(=C2CCNCC2)c2ccc(F)cc2)cc1 [RF001, 4-(Bis(4-fluorophenyl)methylene) piperidine] | 75 | 1.1 | 1.1 | 0.9 | 0

From US12643867B2, “Compositions and uses thereof” (University of Virginia Patent Foundation, priority 2017, dated 2026)
